The values that follow come from patent US20250171420A1 (Monte Rosa Therapeutics, Inc., priority 2022, published 2025).

T1 sequence (P48729 whole entry): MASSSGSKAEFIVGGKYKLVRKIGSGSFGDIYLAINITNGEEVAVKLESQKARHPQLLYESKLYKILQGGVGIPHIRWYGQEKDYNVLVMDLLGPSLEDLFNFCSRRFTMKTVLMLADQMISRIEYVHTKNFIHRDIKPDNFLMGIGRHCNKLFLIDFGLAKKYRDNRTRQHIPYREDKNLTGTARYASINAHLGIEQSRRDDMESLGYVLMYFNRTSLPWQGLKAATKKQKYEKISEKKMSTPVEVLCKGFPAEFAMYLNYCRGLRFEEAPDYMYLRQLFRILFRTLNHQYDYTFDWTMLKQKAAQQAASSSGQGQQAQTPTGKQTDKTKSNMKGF
T1 sequence (Q96SW2 whole entry, further chain): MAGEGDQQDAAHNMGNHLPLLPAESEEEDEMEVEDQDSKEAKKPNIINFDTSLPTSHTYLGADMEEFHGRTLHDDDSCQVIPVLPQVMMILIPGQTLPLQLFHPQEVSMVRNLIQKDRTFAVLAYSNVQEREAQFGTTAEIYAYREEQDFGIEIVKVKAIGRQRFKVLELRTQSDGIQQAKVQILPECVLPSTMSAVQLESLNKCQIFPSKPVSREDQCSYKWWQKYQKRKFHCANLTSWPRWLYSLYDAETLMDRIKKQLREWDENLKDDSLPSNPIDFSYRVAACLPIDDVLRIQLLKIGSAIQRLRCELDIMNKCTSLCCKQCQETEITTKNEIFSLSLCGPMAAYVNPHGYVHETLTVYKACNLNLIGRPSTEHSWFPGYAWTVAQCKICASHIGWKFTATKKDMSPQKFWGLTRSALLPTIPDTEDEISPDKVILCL
T1 sequence (Q16531 2-1140 partner limits assumed): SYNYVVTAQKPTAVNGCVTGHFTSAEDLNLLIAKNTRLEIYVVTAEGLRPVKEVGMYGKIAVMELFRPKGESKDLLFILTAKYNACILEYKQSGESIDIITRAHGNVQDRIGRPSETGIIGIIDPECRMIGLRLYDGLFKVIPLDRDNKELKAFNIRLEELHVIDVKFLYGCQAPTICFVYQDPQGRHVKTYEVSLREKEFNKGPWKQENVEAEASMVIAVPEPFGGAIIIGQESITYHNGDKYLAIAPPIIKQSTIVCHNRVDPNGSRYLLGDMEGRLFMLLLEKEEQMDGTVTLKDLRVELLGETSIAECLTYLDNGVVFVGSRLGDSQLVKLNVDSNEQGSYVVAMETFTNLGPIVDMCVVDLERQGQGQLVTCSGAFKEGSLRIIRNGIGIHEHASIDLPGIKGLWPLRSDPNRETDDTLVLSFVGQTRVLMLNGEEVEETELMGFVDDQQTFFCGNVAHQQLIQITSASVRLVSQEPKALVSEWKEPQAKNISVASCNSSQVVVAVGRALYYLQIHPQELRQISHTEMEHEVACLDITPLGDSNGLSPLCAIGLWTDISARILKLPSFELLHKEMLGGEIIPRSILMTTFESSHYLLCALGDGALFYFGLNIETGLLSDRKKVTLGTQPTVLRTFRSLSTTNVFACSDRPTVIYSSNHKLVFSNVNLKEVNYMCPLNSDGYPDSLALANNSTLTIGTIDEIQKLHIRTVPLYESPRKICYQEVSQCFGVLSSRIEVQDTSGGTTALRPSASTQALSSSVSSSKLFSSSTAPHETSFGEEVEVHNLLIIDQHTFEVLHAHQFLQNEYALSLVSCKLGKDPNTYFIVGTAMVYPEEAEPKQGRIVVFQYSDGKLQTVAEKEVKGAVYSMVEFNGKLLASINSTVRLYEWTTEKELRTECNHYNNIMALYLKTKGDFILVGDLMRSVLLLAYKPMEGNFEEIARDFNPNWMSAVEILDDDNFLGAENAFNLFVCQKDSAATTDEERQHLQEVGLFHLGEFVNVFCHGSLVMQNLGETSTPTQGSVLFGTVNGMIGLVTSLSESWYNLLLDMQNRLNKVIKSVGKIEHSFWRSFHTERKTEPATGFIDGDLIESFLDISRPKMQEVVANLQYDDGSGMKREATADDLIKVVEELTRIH

This experiment has as its target T1, CK1α (Homo sapiens, UniProt P48729).
T1 construct: HEK293 clonal lines with CRISPR KI HiBiT tag on CSNK1A1
As to the kind of experiment: CK1α NanoBit Assay (HiBiT-tagged CSNK1A1, HEK293 clonal lines). The format is cell-based. The settings on record: HEK293 HiBiT-CSNK1A1/LgBiT cells, 24 h incubation. Here is the method: HEK293 clonal lines with CRISPR KI HiBiT tag on CSNK1A1 and stably expressing LgBiT protein were obtained from Promega (Madison, WI). […] Cells were incubated at 37° C., 5% CO2 for 24 hours and then signal was read on a Pherastar FSX using “LUM plus” optic module.
Data analysis was performed in Scinamic (Scinamic, Cambridge, MA). Luminescence response (R) was calculated by the formula: response=100*(S−N)/(P−N) where S is the signal of the well, N and P the mean negative and positive control values respectively of the same plate.
DC50 data are reported in Table 2 for compounds in Table 1. In Table 2 below, According to the code, A represents a DC50 value of ≤0.1 μM, B represents a DC50 value>0.1 μM and ≤1 μM, C represents an DC50 value>1 μM.
Background: With HiBiT, luminescence reflects the tagged protein that the partner subunit can reach.
Compound `O=C1CCC(N2Cc3cc(NC(=O)N4CCCC(O)C4)ccc3C2=O)C(=O)N1` (stereo not drawn) [Compound 262] had a DC50 above 1 µM.
Compound `O=C1CCC(N2Cc3cc(NC(=O)N4C5CCCC4C5)ccc3C2=O)C(=O)N1` (stereo not drawn) [Compound 218] gave a DC50 below 0.1 µM.
`O=C1CCC(N2Cc3cc(NC(=O)N4CCC5(CC5)C4)ccc3C2=O)C(=O)N1` (stereo not drawn) [Compound 274]: the DC50 fell in the range of 0.1 to 1 µM.
As for `N#Cc1ccc2c(c1)CCCN2C(=O)Nc1ccc2c(c1)CN(C1CCC(=O)NC1=O)C2=O` (stereo not drawn) [Compound 150], the DC50 lay within 0.1 to 1 µM.
Consider `CC1CN(c2ccccc2)CCN1C(=O)Nc1ccc2c(c1)CN(C1CCC(=O)NC1=O)C2=O` (stereo not drawn) [Compound 257], for which the DC50 lay within 0.1 to 1 µM.
The value for `O=C1CCC(N2Cc3cc(NC(=O)N4CCc5c(F)cccc5C4)ccc3C2=O)C(=O)N1` (stereo not drawn) [Compound 184] was below 0.1 µM; that for `O=C1CCC(N2Cc3cc(NC(=O)N4CC(n5cccn5)Cc5ccccc54)ccc3C2=O)C(=O)N1` (stereo not drawn) [Compound 161] was 0.1 to 1 µM; that for `O=C1CCC(N2Cc3cc(NC(=O)N4CC(CC(F)F)(c5ccccc5)C4)ccc3C2=O)C(=O)N1` (stereo not drawn) [Compound 237] was 0.1 to 1 µM.
Compound `O=C1CCC(N2Cc3cc(NC(=O)N4CCC(c5ncccn5)C4)ccc3C2=O)C(=O)N1` (stereo not drawn) [Compound 229] had a DC50 above 1 µM.
`O=C1CCC(N2Cc3cc(NC(=O)N4CCc5cccc(C(F)(F)F)c5C4)ccc3C2=O)C(=O)N1` (stereo not drawn) [Compound 212] yielded a DC50 below 0.1 µM.
`O=C1CCC(N2Cc3cc(NC(=O)N4CCCc5ccc(F)cc54)ccc3C2=O)C(=O)N1` (stereo not drawn) [Compound 116]: the DC50 was below 0.1 µM.
`O=C1CCC(N2Cc3cc(NC(=O)N4CCC(C5CC5)C4)ccc3C2=O)C(=O)N1` (stereo not drawn) [Compound 277] registered a DC50 below 0.1 µM.
Regarding `CC1(C)c2ccccc2CCN1C(=O)Nc1ccc2c(c1)CN(C1CCC(=O)NC1=O)C2=O` (stereo not drawn) [Compound 156], the DC50 is above 1 µM.
`O=C1CCC(N2Cc3cc(NC(=O)N4CCCC(C5CCC5)C4)ccc3C2=O)C(=O)N1` (stereo not drawn) [Compound 248] returned a DC50 below 0.1 µM.
In the case of `CC(C)C1c2ccccc2CCN1C(=O)Nc1ccc2c(c1)CN(C1CCC(=O)NC1=O)C2=O` (stereo not drawn) [Compound 181], the DC50 is below 0.1 µM.
For `CC1(C)Cc2ccccc2N(C(=O)Nc2ccc3c(c2)CN(C2CCC(=O)NC2=O)C3=O)C1` (stereo not drawn) [Compound 165], the DC50 was below 0.1 µM.
Regarding `Cc1ccc(C2CCCN2C(=O)Nc2ccc3c(c2)CN(C2CCC(=O)NC2=O)C3=O)cn1` (stereo not drawn) [Compound 224], the DC50 lay within 0.1 to 1 µM.
For the compound `Cc1cccc(C2CN(C(=O)Nc3ccc4c(c3)CN(C3CCC(=O)NC3=O)C4=O)C2)c1` (stereo not drawn) [Compound 226], the DC50 is below 0.1 µM.
Take `O=C1CCC(N2Cc3cc(NC(=O)N4CCCc5cccc(Cl)c54)ccc3C2=O)C(=O)N1` (stereo not drawn) [Compound 158]: the DC50 was 0.1 to 1 µM.
For `CC1CCCN(C(=O)Nc2ccc3c(c2)CN(C2CCC(=O)NC2=O)C3=O)C1` (stereo not drawn) [Compound 280], the DC50 was 0.1 to 1 µM.
With `COc1cccc2c1CN(C(=O)Nc1ccc3c(c1)CN(C1CCC(=O)NC1=O)C3=O)C2` (stereo not drawn) [Compound 134], the DC50 was below 0.1 µM.
The value for `O=C1CCC(N2Cc3cc(NC(=O)N4CCc5ccccc5C4C(F)(F)F)ccc3C2=O)C(=O)N1` (stereo not drawn) [Compound 130] was below 0.1 µM; that for `O=C1CCC(N2Cc3cc(NC(=O)N4CCc5ccc(F)cc5C4)ccc3C2=O)C(=O)N1` (stereo not drawn) [Compound 180] was below 0.1 µM.
The value for `Cc1cccc2c1N(C(=O)Nc1ccc3c(c1)CN(C1CCC(=O)NC1=O)C3=O)CCC2` (stereo not drawn) [Compound 139] was 0.1 to 1 µM.
For `N#Cc1ccc(C2CN(C(=O)Nc3ccc4c(c3)CN(C3CCC(=O)NC3=O)C4=O)C2)cc1` (stereo not drawn) [Compound 244], the DC50 was in the range of 0.1 to 1 µM.
As for `O=C1CCC(N2Cc3cc(NC(=O)N4CC(c5cccc(C(F)(F)F)c5)C4)ccc3C2=O)C(=O)N1` (stereo not drawn) [Compound 241], the DC50 is 0.1 to 1 µM.
As for `O=C1CCC(N2Cc3cc(NC(=O)N4CCc5ncccc54)ccc3C2=O)C(=O)N1` (stereo not drawn) [Compound 108, N-(2-(2,6-dioxopiperidin-3-yl)-1-oxoisoindolin-5-yl)-2,3-dihydro-1H-pyrrolo[3,2-b]pyridine-1-carboxamide], the figure is 0.1 to 1 µM; as for `O=C1CCC(N2Cc3cc(NC(=O)N4CCCc5ccccc54)ccc3C2=O)C(=O)N1` (stereo not drawn) [Compound 107, N-(2-(2,6-dioxopiperidin-3-yl)-1-oxoisoindolin-5-yl)-3,4-dihydroquinoline-1(2H)-carboxamide], 0.1 to 1 µM; as for `O=C1CCC(N2Cc3cc(NC(=O)N4CCCc5cccnc54)ccc3C2=O)C(=O)N1` (stereo not drawn) [Compound 146], 0.1 to 1 µM.
The value for `Cc1ccc2c(c1)CCCN2C(=O)Nc1ccc2c(c1)CN(C1CCC(=O)NC1=O)C2=O` (stereo not drawn) [Compound 140] was below 0.1 µM; that for `O=C1CCC(N2Cc3cc(NC(=O)N4c5cccc(C(F)(F)F)c5CC45COC5)ccc3C2=O)C(=O)N1` (stereo not drawn) [Compound 296, N-(2-(2,6-dioxopiperidin-3-yl)-1-oxoisoindolin-5-yl)-4-(trifluoromethyl)spiro[indoline-2,3′-oxetane]-1-carboxamide] was below 0.1 µM.
`O=C1CC[C@@H](N2Cc3cc(NC(=O)N4c5ccccc5C[C@@H]4C(F)(F)F)ccc3C2=O)C(=O)N1` (single isomer, unassigned) [Compound 360] returned a DC50 below 0.1 µM.
As for `O=C1CCC(N2Cc3cc(NC(=O)N4CC(c5ccccc5F)C4)ccc3C2=O)C(=O)N1` (stereo not drawn) [Compound 217], the figure is below 0.1 µM; as for `O=C1CCC(N2Cc3cc(NC(=O)N4CC(c5cccc(Cl)c5)C4)ccc3C2=O)C(=O)N1` (stereo not drawn) [Compound 268], below 0.1 µM.
As for `O=C1CCC(N2Cc3cc(NC(=O)N4Cc5cccc(F)c5C4)ccc3C2=O)C(=O)N1` (stereo not drawn) [Compound 202], the DC50 is below 0.1 µM.
Consider `CC1CCN(C(=O)Nc2ccc3c(c2)CN(C2CCC(=O)NC2=O)C3=O)CC1` (stereo not drawn) [Compound 281], for which the DC50 was in the range of 0.1 to 1 µM.
As for `O=C1CCC(N2Cc3cc(NC(=O)N4C[C@H]5CC4[C@H](c4ccccc4)C5)ccc3C2=O)C(=O)N1` (stereo partly drawn) [Compound 230], the figure is 0.1 to 1 µM; as for `Cc1cccc(N2CCN(C(=O)Nc3ccc4c(c3)CN(C3CCC(=O)NC3=O)C4=O)CC2)c1` (stereo not drawn) [Compound 265], 0.1 to 1 µM.
In turn, `Cc1ccccc1N1CCN(C(=O)Nc2ccc3c(c2)CN(C2CCC(=O)NC2=O)C3=O)CC1` (stereo not drawn) [Compound 261] yielded a DC50 below 0.1 µM.
Compound `O=C1CCC(N2Cc3cc(NC(=O)N4C[C@@H]5[C@H]6CC[C@H](C6)[C@@H]5C4)ccc3C2=O)C(=O)N1` (stereo partly drawn) [Compound 220] yielded a DC50 below 0.1 µM.
`O=C1CCC(N2Cc3cc(NC(=O)N4CC(c5cccc(F)c5)C4)ccc3C2=O)C(=O)N1` (stereo not drawn) [Compound 238] showed a DC50 of 0.1 to 1 µM.
`C[C@@H]1Cc2cc(F)ccc2N1C(=O)Nc1ccc2c(c1)CN(C1CCC(=O)NC1=O)C2=O` (stereo partly drawn) [Compound 363, (2R)—N-(2-(2,6-dioxopiperidin-3-yl)-1-oxoisoindolin-5-yl)-5-fluoro-2-methylindoline-1-carboxamide]: the DC50 was below 0.1 µM.
`O=C1CCC(N2Cc3cc(NC(=O)N4CCCC5CC54)ccc3C2=O)C(=O)N1` (stereo not drawn) [Compound 276]: the DC50 lay within 0.1 to 1 µM.
`C[C@H]1CCCN(C(=O)Nc2ccc3c(c2)CN(C2CCC(=O)NC2=O)C3=O)C1` (stereo partly drawn) [Compound 279] returned a DC50 of 0.1 to 1 µM.
The value for `O=C1CCC(N2Cc3cc(NC(=O)N4CCC(c5ccc(F)cn5)C4)ccc3C2=O)C(=O)N1` (stereo not drawn) [Compound 239] was 0.1 to 1 µM.
